In patent publication US8809352B2, “Sulfonamides as inhibitors of Bcl-2 family proteins for the treatments of cancer” (Novartis AG, priority 2009, dated 2014):

Target: BCL2 (Homo sapiens, UniProt P10415)
Test: Biacore SPR solution inhibition assay of BCL-2 binding to peptide derivatized sensor surfaces
Details: SPR competition; 56 nM BCL2 pre-equilibrated with compound one hour; biotinylated BAK, BAD and NOXA peptide surfaces; 25° C.
Summary of the method: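 Solution-competition SPR at 25 °C in HEPES pH 7.4 buffer with 1.25 mM DTT and 3% DMSO: compounds (6-point threefold series, 16 μM to 0.004 nM) pre-equilibrated 1 h with 56 nM BCL2, then injected over captured biotinylated BAK, BAD and NOXA peptide surfaces. Binding levels relative to BCL2-only controls gave % inhibition.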

Chain of BCL2 (P10415 whole entry): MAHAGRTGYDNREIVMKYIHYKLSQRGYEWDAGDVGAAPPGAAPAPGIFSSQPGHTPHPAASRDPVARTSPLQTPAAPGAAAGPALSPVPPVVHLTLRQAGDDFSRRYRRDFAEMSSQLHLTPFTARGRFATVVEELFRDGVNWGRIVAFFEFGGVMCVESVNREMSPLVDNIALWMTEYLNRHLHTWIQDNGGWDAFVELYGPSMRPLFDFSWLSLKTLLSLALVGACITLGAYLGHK

| Compound | IC50 [nM] |
| --- | --- |
| CC(c1ccccc1-c1ccc(Cl)cc1)N1CCC(N2CCc3c(ncnc3NS(=O)(=O)c3ccc(N[C@H](CCN(C)C)CSc4ccccc4)c(S(=O)(=O)C(F)(F)F)c3)C2)CC1 (stereo partly drawn) [Example 51, N-(7-(1-(1-(4′-chlorobiphenyl-2-yl)ethyl)piperidin-4-yl)-5,6,7,8-tetrahydropyrido[3,4-d]pyrimidin-4-yl)-4-((R)-4-(dimethylamino)-1-(phenylthio)butan-2-ylamino)-3-(trifluoromethylsulfonyl)benzenesulfonamide] | 35 |
| O=S(=O)(Nc1ncnc2c1CCN(C1CCN(Cc3ccccc3-c3ccc(Cl)cc3)CC1)C2)c1ccc(NCCSc2ccccc2)c(S(=O)(=O)C(F)(F)F)c1 [Example 52] | 1310 |
| CN(C)CC[C@H](CSc1ccccc1)Nc1ccc(S(=O)(=O)Nc2ncnc3c2CCN(C2CCN(Cc4ccccc4-c4ccc(Cl)cc4)CC2)C3)cc1C(F)(F)F [Example 53] | 66 |
| CN(C)CC[C@H](CSc1ccccc1)Nc1ccc(S(=O)(=O)Nc2ncnc3c2CCN(C2CCN(Cc4ccccc4-c4ccc(Cl)cc4)CC2)C3)cc1C#N [Example 54, (R)-N-(7-(1-((4′-chlorobiphenyl-2-yl)methyl)piperidin-4-yl)-5,6,7,8-tetrahydropyrido[3,4-d]pyrimidin-4-yl)-3-cyano-4-(4-(dimethylamino)-1-(phenylthio)butan-2-ylamino)benzenesulfonamide] | 173 |
| CN1CCN(CC[C@H](CSc2ccccc2F)Nc2ccc(S(=O)(=O)Nc3ncnc4c3CCN(C3CCN(Cc5ccccc5-c5ccc(Cl)cc5)CC3)C4)cc2S(=O)(=O)C(F)(F)F)CC1 [Example 56, (R)-N-(7-(1-((4′-chlorobiphenyl-2-yl)methyl)piperidin-4-yl)-5,6,7,8-tetrahydropyrido[3,4-d]pyrimidin-4-yl)-4-(1-(2-fluorophenylthio)-4-(4-methylpiperazin-1-yl)butan-2-ylamino)-3-(trifluoromethylsulfonyl)benzenesulfonamide] | 27 |
| COC1(Cc2ccccc2Br)CCC(N2CCc3c(ncnc3NS(=O)(=O)c3ccc(N[C@H](CCN(C)C)CSc4ccccc4)c(S(=O)(=O)C(F)(F)F)c3)C2)CC1 (stereo partly drawn) [Example 61, (R)-N-(7-(4-(2-bromobenzyl)-4-methoxycyclohexyl)-5,6,7,8-tetrahydropyrido[3,4-d]pyrimidin-4-yl)-4-(4-(dimethylamino)-1-(phenylthio)butan-2-ylamino)-3-(trifluoromethylsulfonyl)benzenesulfonamide] | 306 |
| CN(C)CC[C@H](CSc1ccccc1)Nc1ccc(S(=O)(=O)Nc2ncnc3c2CCN(C2CCC(=Cc4ccccc4-c4ccc(Cl)cc4)CC2)C3)cc1S(=O)(=O)C(F)(F)F (stereo partly drawn) [Example 62, N-(7-(4-((4′-chlorobiphenyl-2-yl)methylene)cyclohexyl)-5,6,7,8-tetrahydropyrido[3,4-d]pyrimidin-4-yl)-4-((R)-4-(dimethylamino)-1-(phenylthio)butan-2-ylamino)-3-(trifluoromethylsulfonyl)benzenesulfonamide] | 174 |
| CN(C)CC[C@H](CSc1ccccc1)Nc1ccc(S(=O)(=O)Nc2ncnc3c2CCN(C2CCC(=Cc4ccccc4)CC2)C3)cc1S(=O)(=O)C(F)(F)F (stereo partly drawn) [Example 63] | 1180 |
| O=S(=O)(Nc1ncnc2c1CCN(C1CCN(Cc3ccccc3-c3ccc(Cl)cc3)CC1F)C2)c1ccc(N[C@H](CCN2CCOCC2)CSc2ccccc2)c(S(=O)(=O)C(F)(F)F)c1 (stereo partly drawn) [Example 65, N-(7-(1((4′-Chlorobiphenyl-2-yl)methyl)-3-fluoropiperidin-4-yl)-5,6,7,8-tetrahydropyrido[3,4-d]pyrimidin-4-yl)-4-((R)-4-morpholino-1-(phenylthio)butan-2-ylamino)-3-(trifluoromethylsulfonyl)benzenesulfonamide] | 181 |
| CN(C)CC[C@H](CSc1ccccc1)Nc1ccc(S(=O)(=O)Nc2ncnc3c2CCN(C2CCN(Cc4ccccc4-c4ccc(Cl)cc4)CC2F)C3)cc1S(=O)(=O)C(F)(F)F (stereo partly drawn) [Example 66, N-(7-(1-((4′-chlorobiphenyl-2-yl)methyl)-3-fluoropiperidin-4-yl)-5,6,7,8tetrahydropyrido[3,4-d]pyrimidin-4-yl)-4-((R)-4-(dimethylamino)-1-(phenylthio)butan-2-ylamino)-3-(trifluoromethylsulfonyl)benzenesulfonamide] | 36 |
| CN(C)CC[C@H](CSc1ccccc1)Nc1ccc(S(=O)(=O)Nc2nc(C(F)(F)F)nc3c2CCN(C2CCN(Cc4ccccc4-c4ccc(Cl)cc4)CC2)C3)cc1S(=O)(=O)C(F)(F)F [Example 67, (R)-N-(7-(1((4′-chlorobiphenyl-2-yl)methyl)piperidin-4-yl)-2-(trifluoromethyl)-5,6,7,8-tetrahydropyrido[3,4-d]pyrimidin-4-yl)-4-(4-(dimethylamino)-1-(phenylthio)butan-2-ylamino)-3-(trifluoramethylsulfonyl)benzenesulfonamide] | 42 |
| O=S(=O)(Nc1nc(C(F)(F)F)nc2c1CCN(C1CCN(Cc3ccccc3-c3ccc(Cl)cc3)CC1)C2)c1ccc(N[C@H](CCN2CCOCC2)CSc2ccccc2)c(S(=O)(=O)C(F)(F)F)c1 [Example 68, (R)-N-(7-(1-((4′-chlorobiphenyl-2-yl)methyl)piperidin-4-yl)-2-(trifluoromethyl)-5,6,7,8-tetrahydropyrido[3,4-d]pyrimidin-4-yl)-4-(4-morpholino-1-(phenylthio)butan-2-ylamino)-3-(trifluoromethylsulfonyl)benzenesulfonamide] | 235 |
| CN(C)CC[C@H](CSc1ccccc1)Nc1ccc(S(=O)(=O)Nc2nc(C(F)(F)F)nc3c2CCN(C2CCN(Cc4ccccc4-c4ccc(Cl)cc4)CC2)C3)cc1[N+](=O)[O-] [Example 71, (R)-N-(7-(1-((4′-chlorobiphenyl-2-yl)methyl)piperidin-4-yl)-2-(trifluoromethyl)-5,6,7,8-tetrahydropyrido[3,4-d]pyrimidin-4-yl)-4-(4-(dimethylamino)-1-(phenylthio)butan-2-ylamino)-3-nitrobenzenesulfonamide] | 20 |

Continued by falling IC50, values first:

| IC50 [nM] | Compound |
| --- | --- |
| 971 | O=S(=O)(Nc1ncnc2c1CN(C1CCN(Cc3ccccc3-c3ccc(Cl)cc3)CC1)C2)c1ccc(N[C@H](CCN2CCOCC2)CSc2ccccc2)c(S(=O)(=O)C(F)(F)F)c1 [Example 72, (R)-N-(6-(1-((4′-chlorobiphenyl-2-yl)methyl)piperidin-4-yl)-6,7-dihydro-5H-pyrrolo[3,4-d]pyrimidin-4-yl)-4-(4-morpholino-1-(phenylthio)butan-2-ylamino)-3-(trifluoromethylsulfonyl)benzenesulfonamide] |
| 579 | CCC[C@H](CSc1ccccc1)Nc1ccc(S(=O)(=O)Nc2ncnc3c2CCN(C2CCN(CC4=C(c5ccc(Cl)cc5)CC(C)(C)CC4)CC2)C3)cc1S(=O)(=O)C(F)(F)F [Example 59, N-(7-(1-((2-(4-chlorophenyl)-4,4-dimethylcyclohex-1-enyl)methyl)piperidin-4-yl)-5,6,7,8-tetrahydropyrido[3,4-d]pyrimidin-4-yl)-4-(1-(phenylthio)pentan-2-ylamino)-3-(trifluoromethylsulfonyl)benzenesulfonamide] |
| 99 | CN(C)CC[C@H](CSc1cccc(Cl)c1)Nc1ccc(S(=O)(=O)Nc2ncnc3c2CCN(C2CCN(Cc4ccccc4-c4ccc(F)cc4)CC2)C3)cc1S(=O)(=O)C(F)(F)F [Example 57, N-{7-[1-(4′-Fluoro-biphenyl-2-ylmethyl)-piperidin-4-yl]-5,6,7,8-tetrahydro-pyrido[3,4-d]pyrimidin-4-yl}-4-[(R)-1-(3-chloro-phenylsulfanylmethyl)-3-dimethylamino-propylamino]-3-trifluoromethanesulfonyl-benzenesulfonamide] |
| 66 | O=[N+]([O-])c1cc(S(=O)(=O)Nc2ncnc3c2CCN(C2CCN(Cc4ccccc4-c4ccc(Cl)cc4)CC2)C3)ccc1N[C@H](CCN1CCOCC1)CSc1ccccc1 [Example 58] |
| 51 | CN(C)CC[C@H](CSc1ccccc1)Nc1ccc(S(=O)(=O)Nc2nc(C(F)(F)F)nc3c2CCN(C2CCN(CC4=C(c5ccc(Cl)cc5)CCC(C)(C)C4)CC2)C3)cc1S(=O)(=O)C(F)(F)F [Example 70] |
| 47 | CN(C)CC[C@H](CSc1ccccc1)Nc1ccc(S(=O)(=O)Nc2nc(C(F)(F)F)nc3c2CCN(C2CCN(Cc4ccccc4-c4ccc(Cl)cc4)CC2F)C3)cc1S(=O)(=O)C(F)(F)F (stereo partly drawn) [Example 69, N-(7-(1-((4′-chlorobiphenyl-2-yl)methyl)-3-fluoropiperidin-4-yl)-2-(trifluoromethyl)-5,6,7,8-tetrahydropyrido[3,4-d]pyrimidin-4-yl)-4-((R)-4-(dimethylamino)-1-(phenylthio)butan-2-ylamino)-3-(trifluoromethylsulfonyl)benzenesulfonamide] |
| 35 | CN1CCN(CC[C@H](CSc2ccccc2F)Nc2ccc(S(=O)(=O)Nc3ncnc4c3CCN(C3CCN(CC5=C(c6ccc(Cl)cc6)CC(C)(C)CC5)CC3)C4)cc2S(=O)(=O)C(F)(F)F)CC1 [Example 55, (R)-N-(7-(1-((2-(4-chlorophenyl)-4,4-dimethylcyclohex-1-enyl)methyl)piperidin-4-yl)-5,6,7,8-tetrahydropyrido[3,4-d]pyrimidin-4-yl)-4-(1-(2-fluorophenylthio)-4-(4-methylpiperazin-1-yl)butan-2-ylamino)-3-(trifluoromethylsulfonyl)benzenesulfonamide] |
| 31 | CN(C)CC[C@H](CSc1ccccc1)Nc1ccc(S(=O)(=O)Nc2nc(Cl)nc3c2CCN(C2CCN(Cc4ccccc4-c4ccc(Cl)cc4)CC2)C3)cc1S(=O)(=O)C(F)(F)F [Example 50, (R)-N-(2-chloro-7-(1-((4′-chlorobiphenyl-2-yl)methyl)piperidin-4-yl)-5,6,7,8-tetrahydropyrido[3,4-d]pyrimidin-4-yl)-4-(4-(dimethylamino)-1-(phenylthio)butan-2-ylamino)-3-(trifluoromethylsulfonyl)benzenesulfonamide] |
